Our source for the T/C values is PubChem BioAssay AID330 (DTP/NCI, 2004).

“And” between values parts separate entries of the source, which are not always exact repeats. Identical values can stand only once. Toxic doses and inconclusive results are not listed.

This assay relates to P388 leukemia ip, CD2F1 mice, survival T/C. Nature of the assay: NCI In Vivo Anticancer Drug Screen. Data for tumor model P388 Leukemia (intraperitoneal) in CD2F1 (CDF1) mice. The note with it: endpoint: median survival time, higher = longer survival. Summed up:
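Mice carrying the transplanted tumor received test compound or vehicle. Survival was recorded in each group, and the value is the treated-group measurement divided by that of the vehicle-treated control group.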

Setting [1] is: dose: 50.0 mg/kg/injection, schedule: Q01DX009 (ip), vehicle: Klucel (hydroxypropylcellulose) (HPC).
[2] abbreviates: dose: 100.0 mg/kg/injection, schedule: Q01DX009 (ip), vehicle: Klucel (hydroxypropylcellulose) (HPC).
Setting [3] is: dose: 200.0 mg/kg/injection, schedule: Q01DX009 (ip), vehicle: Klucel (hydroxypropylcellulose) (HPC).
Where [4] appears, read: dose: 100.0 mg/kg/injection, schedule: Q04DX002 (ip), vehicle: saline.
Setting [5] is: dose: 200.0 mg/kg/injection, schedule: Q04DX002 (ip), vehicle: saline.
Setting [6] is: dose: 400.0 mg/kg/injection, schedule: Q04DX002 (ip), vehicle: saline.
The mark [7] stands for this setting: dose: 60.0 mg/kg/injection, schedule: Q01DX005 (ip), vehicle: saline.
[8] abbreviates: dose: 120.0 mg/kg/injection, schedule: Q01DX005 (ip), vehicle: saline.
[9] abbreviates: dose: 240.0 mg/kg/injection, schedule: Q01DX005 (ip), vehicle: saline.
The mark [10] stands for this setting: dose: 50.0 mg/kg/injection, schedule: Q01DX005 (ip), vehicle: Klucel (hydroxypropylcellulose) (HPC).
The mark [11] stands for this setting: dose: 100.0 mg/kg/injection, schedule: Q01DX005 (ip), vehicle: Klucel (hydroxypropylcellulose) (HPC).
Where [12] appears, read: dose: 200.0 mg/kg/injection, schedule: Q01DX005 (ip), vehicle: Klucel (hydroxypropylcellulose) (HPC).
Setting [13] is: dose: 25.0 mg/kg/injection, schedule: Q01DX009 (ip), vehicle: saline with Tween-80.
The mark [14] stands for this setting: dose: 50.0 mg/kg/injection, schedule: Q01DX009 (ip), vehicle: saline with Tween-80.
Where [15] appears, read: dose: 100.0 mg/kg/injection, schedule: Q01DX009 (ip), vehicle: saline with Tween-80.
[16] abbreviates: dose: 60.0 mg/kg/injection, schedule: Q01DX005 (ip), vehicle: saline with Tween-80.
[17] abbreviates: dose: 120.0 mg/kg/injection, schedule: Q01DX005 (ip), vehicle: saline with Tween-80.
[18] abbreviates: dose: 240.0 mg/kg/injection, schedule: Q01DX005 (ip), vehicle: saline with Tween-80.
The mark [19] stands for this setting: dose: 25.0 mg/kg/injection, schedule: Q01DX005 (ip), vehicle: Klucel (hydroxypropylcellulose) (HPC).

Take `CCOC(=O)C(Cc1csc2ccc(Cl)cc12)(NC(C)=O)C(=O)OCC`: the T/C was 96 % of control under setting [1], 96 % of control under setting [2] and 94 % of control under setting [3].
Turning to `C=C(C)C1CC(=O)C2(C)OC2C1` (stereo not given), the T/C is 101 % of control under setting [4], 100 % of control under setting [5] and 97 % of control under setting [6].
In the case of `CC(=O)Cc1cc(-c2cc(CC(C)=O)[nH]n2)n[nH]1`, the T/C is, setting by setting: under setting [7], 98 % of control; under setting [8], 95 % of control; under setting [9], 102 % of control.
For the compound `O=S(=O)(OC(=C(c1ccccc1)c1ccccc1)c1ccccc1)C(F)(F)F`, the T/C (dose: 50.0 mg/kg/injection, schedule: Q01DX009 (ip), vehicle: olive oil, sesame oil, peanut oil) is 99 % of control; the T/C (dose: 100.0 mg/kg/injection, schedule: Q01DX009 (ip), vehicle: olive oil, sesame oil, peanut oil) is 107 % of control; the T/C (dose: 200.0 mg/kg/injection, schedule: Q01DX009 (ip), vehicle: olive oil, sesame oil, peanut oil) was 112 % of control.
In the case of `CC(=O)N1C(CO)C(O)C(O)C1n1cnc2c(N)ncnc21` (stereo not given), the T/C is, setting by setting: under setting [10], 95 % of control; under setting [11], 100 % of control; under setting [12], 100 % of control; (dose: 300.0 mg/kg/injection, schedule: Q01DX005 (ip), vehicle: Klucel (hydroxypropylcellulose) (HPC)) 100 % of control.
On to `O=C(SCc1ccccc1)c1cccnc1`, for which the T/C is 105 % of control under setting [13], 110 % of control under setting [14] and 100 % of control under setting [15].
On to `Cc1cc(C=C2C(=O)c3ccccc3C2=O)cc(C(C)(C)C)c1O`, for which the T/C runs as follows: under setting [4], 100 % of control; under setting [5], 100 % of control; under setting [6], 97 % of control.
Take `CCOc1cccc2c1C(=O)c1c(OCC)c3c(c(OCC)c1C2=O)CC(O)(C(C)=O)CC3O` (stereo not given): the T/C was 99 % of control (dose: 1.56 mg/kg/injection, schedule: Q01DX009 (ip), vehicle: other); 102 % of control (dose: 3.13 mg/kg/injection, schedule: Q01DX009 (ip), vehicle: other); 93 % of control (dose: 6.25 mg/kg/injection, schedule: Q01DX009 (ip), vehicle: other); 96 % of control (dose: 12.5 mg/kg/injection, schedule: Q01DX009 (ip), vehicle: other); 90 % of control (dose: 25.0 mg/kg/injection, schedule: Q01DX009 (ip), vehicle: other).
As to `COc1ccc(C(c2cc3c(cc2O)OCO3)N2CCOCC2)cc1` (stereo not given), the T/C reads like this: under setting [16], 118 % of control; under setting [17], 109 % of control and 119 % of control; under setting [18], 120 % of control.
As for `CCOc1ccccc1NC(=S)Nc1ccccc1C(F)(F)F`, the T/C was 109 % of control under setting [1], 100 % of control under setting [2] and 100 % of control under setting [3].
Consider `COc1nc(C(Cl)(Cl)Cl)c(Cl)c(OC)c1Cl`, for which the T/C by setting is: (dose: 17.8 mg/kg/injection, schedule: Q01DX005 (iv), vehicle: other) 108 % of control; under setting [19], 114 % of control and 115 % of control; (dose: 26.7 mg/kg/injection, schedule: Q01DX005 (ip), vehicle: other) 111 % of control and 121 % of control; (dose: 26.7 mg/kg/injection, schedule: Q01DX005 (iv), vehicle: other) 109 % of control; (dose: 40.0 mg/kg/injection, schedule: Q01DX005 (ip), vehicle: Klucel (hydroxypropylcellulose) (HPC)) 100 % of control and 102 % of control; (dose: 60.0 mg/kg/injection, schedule: Q01DX005 (ip), vehicle: Klucel (hydroxypropylcellulose) (HPC)) 105 % of control and 107 % of control. Also, the T/C (dose: 60.0 mg/kg/injection, schedule: Q01DX005 (iv), vehicle: other) is 107 % of control; the T/C (dose: 90.0 mg/kg/injection, schedule: Q01DX005 (ip), vehicle: other) is 171 % of control; the T/C (dose: 134.0 mg/kg/injection, schedule: Q01DX005 (ip), vehicle: Klucel (hydroxypropylcellulose) (HPC)) was 150 % of control; the T/C (dose: 135.0 mg/kg/injection, schedule: Q01DX005 (ip), vehicle: Klucel (hydroxypropylcellulose) (HPC)) was 106 % of control; the T/C (dose: 135.0 mg/kg/injection, schedule: Q01DX005 (ip), vehicle: other) is 196 % of control and 207 % of control; the T/C (dose: 202.3 mg/kg/injection, schedule: Q01DX005 (ip), vehicle: Klucel (hydroxypropylcellulose) (HPC)) is 105 % of control. Moreover, the T/C (dose: 303.3 mg/kg/injection, schedule: Q01DX005 (ip), vehicle: Klucel (hydroxypropylcellulose) (HPC)) is 168 % of control.
For `CN1N=C(c2ccccc2O)/C(=C/c2c(-c3ccccc3O)[nH]n(C)c2=O)C1=O`, the T/C is 94 % of control under setting [16], 86 % of control under setting [17] and 87 % of control under setting [18].
As for `Cc1ccc(N=c2oc(-c3ccccc3)cs2)cc1`, the T/C was 90 % of control (dose: 100.0 mg/kg/injection, schedule: Q01DX001 (ip), vehicle: saline with Tween-80); 89 % of control (dose: 200.0 mg/kg/injection, schedule: Q01DX001 (ip), vehicle: saline with Tween-80); 88 % of control (dose: 400.0 mg/kg/injection, schedule: Q01DX001 (ip), vehicle: saline with Tween-80).
As to `Cc1cnc(N)c(C(=O)O)n1`, the T/C is, setting by setting: under setting [10], 102 % of control; under setting [11], 90 % of control.
Consider `COc1cc(C2(C3CC(=O)OC3COC(c3ccccc3)(c3ccccc3)c3ccccc3)SCCCS2)cc(OC)c1OC` (stereo not given), for which the T/C (dose: 100.0 mg/kg/injection, schedule: Q04DX002 (ip), vehicle: saline with Tween-80) was 88 % of control.
Regarding `CC1CC2(c3ccccc3)C(=O)NC(=O)N=C2O1` (stereo not given), the T/C was 105 % of control (dose: 100.0 mg/kg/injection, schedule: Q04DX002 (ip), vehicle: Klucel (hydroxypropylcellulose) (HPC)); 109 % of control (dose: 200.0 mg/kg/injection, schedule: Q04DX002 (ip), vehicle: Klucel (hydroxypropylcellulose) (HPC)); 105 % of control (dose: 400.0 mg/kg/injection, schedule: Q04DX002 (ip), vehicle: Klucel (hydroxypropylcellulose) (HPC)).
Regarding `Clc1cc(-c2csc(Cl)c2)cs1`, the T/C reads like this: under setting [13], 97 % of control; under setting [14], 103 % of control and 97 % of control; under setting [15], 109 % of control; (dose: 200.0 mg/kg/injection, schedule: Q01DX009 (ip), vehicle: saline with Tween-80) 96 % of control.
In the case of `O=c1c(F)cn(-c2ccco2)c(=O)n1-c1ccco1`, the T/C was 103 % of control (dose: 37.5 mg/kg/injection, schedule: Q04DX003 (ip), vehicle: saline + alcohol); 100 % of control (dose: 75.0 mg/kg/injection, schedule: Q04DX003 (ip), vehicle: saline + alcohol); 96 % of control (dose: 150.0 mg/kg/injection, schedule: Q04DX003 (ip), vehicle: saline + alcohol).
As for `Oc1cc2c(c3c(O)c4ccccc4c(O)c13)=NC1CCCCC1N=2` (stereo not given), the T/C by setting is: under setting [19], 100 % of control; under setting [10], 102 % of control; under setting [11], 103 % of control; under setting [12], 93 % of control.
Regarding `CC(=NCc1ccccc1)NO`, the T/C by setting is: (dose: 50.0 mg/kg/injection, schedule: Q01DX005 (ip), vehicle: saline) 97 % of control; (dose: 100.0 mg/kg/injection, schedule: Q01DX005 (ip), vehicle: saline) 96 % of control.
For `C[CH2][Sn]([CH2]C)([O]C(C)=O)[O][Sn]([CH2]C)([CH2]C)[O]C(C)=O`, for the setting “dose: 6.25 mg/kg/injection, schedule: Q01DX009 (ip), vehicle: saline”, the T/C is 155 % of control.
Regarding `Cc1ccc(-c2cc(-c3cc(-c4ccc(C)cc4)nc(N)n3)nc(N)n2)cc1`, the T/C under setting [7] is 90 % of control, the T/C under setting [8] was 96 % of control and the T/C under setting [9] was 97 % of control.
